Reference: PubChem BioAssay AID2060483 (Molecular Pharmacology Branch, DTP, NCI, 2025)
pIC50: −log10 of the molar value. Values joined by “and” are separate entries in the source; they are usually repeats but may differ in a detail not shown here. Equal entries are not always repeated.

Test system: K24384-001-R-PDC complex spheroids, viability
Test: Anticancer human tumor K24384-001-R-PDC patient-derived pancreatic adenocarcinoma cell line growth inhibition [GQUAD]
Details: for viability, T/C: stronger effect = lower value
Text: DNA G-quadruplex Stabilizer Agents in Combinations in Complex Spheroids
A high-throughput screen of multi-cell type tumor spheroids was designed to identify active combinations of DNA G-quadruplex stabilizer agents and targeted small molecules. Complex spheroids include a stromal component modeled by human endothelial cells (HUVEC) and fibroblasts modeled by human mesenchymal stem cells (MSCs). The concentration ranges selected for each drug and investigational agent were based upon clinically achievable concentrations if the clinical Cmax of the agent was known.
Compounds. The drugs and investigational agents: pidnarulex (CX-5461; NSC782164), APTO-253 (NSC789042), BRACO-19 (NSC847499), peposertib (NSC802822), ceralasertib (NSC780249), elimusertib (NSC800525), camonsertib (NSC841442), AZD-1390 (NSC803789), olaparib (NSC753686), talazoparib (NSC767125), ART-558 (NSC835418), sotorasib (NSC818433), MRTX-1133 (NSC836407), SN-38 (NSC673596), topotecan (NSC609699), etoposide (NSC141540), doxorubicin (NSC123127), gemcitabine (NSC613327), 5-fluorouracil (NSC19893), paclitaxel (NSC125973), vemurafenib (NSC761431), panobinostat (NSC761190), R-306465 (JNJ-16241199; NSC773264), adavosertib (NSC754352), TP-3654 (NSC805149), carboplatin (NSC241240), KSQ-4279 (NSC840948), and staurosporine (NSC755774) were obtained from the National Cancer Institute (NCI) Developmental Therapeutics Program Chemical Repository (34). The FDA-approved anticancer drug set is available from the NCI Developmental Therapeutics Program. […] The stock solutions were prepared in dimethyl sulfoxide (DMSO, Sigma-Aldrich, St. Louis, MO, cat. D2650) at 800-fold the tested concentration and stored at -70 degrees C prior to their use. All drugs and investigational agents were tested over a range starting from a high concentration at or near the clinical Cmax and decreasing in half-log increments. If the clinical Cmax for an agent had not been determined, the highest concentration tested was 10 microM.
2.3 Cell Culture. All cells were maintained in an incubator at 37 degrees C and 5% CO2 with 95% humidity. The PDC lines were cultured according to standard operating procedures established by the NCI PDMR. All PDCs were thawed and cultured in Matrigel-coated flasks prepared with a working solution of 1X Ham's F-12 nutrient mix, without supplementation (Invitrogen, cat. 11765054), 100 U/mL penicillin-streptomycin (Invitrogen, cat. 15140122), and 2.5% Matrigel (Corning Inc., cat. 354248) for the first three passages. The 857933-349-R-J2-PDC line was cultured in 6C/Colon 1B media, which includes advanced DMEM/F-12 (Thermo Fisher Scientific, cat. 12634028), 10 mM HEPES (Thermo Fisher Scientific, cat. 15630080), 1X GlutaMAX supplement (Thermo Fisher Scientific, cat. 35050061), 0.1 mg/mL primocin (InvivoGen, cat. ant-pm-2), 10% defined fetal bovine serum, heat inactivated (HyClone Laboratories Inc., cat. SH30070.03HI), 50% L-WRN conditioned media (ATCC, cat. CRL-3276), 1.25 mM N-Acetyl-L-cysteine (Sigma-Aldrich, cat. A9165), 10 mM nicotinamide (Sigma-Aldrich, cat. N0636), 1X B-27 supplement (Thermo Fisher Scientific, cat. 17504044), 1X N-2 supplement (Thermo Fisher Scientific, cat. 17502048), 10 microM Y-27632 dihydrochloride (Tocris Bioscience, cat. 1254), and 50 ng/mL human EGF recombinant protein (Thermo Fisher Scientific, cat. PHG0311). The 485176-168-R4-J1-PDC line was cultured in Panc media, which includes all 6C/Colon 1B media components plus 100 ng/mL human FGF-10 (Thermo Fisher Scientific, cat. 100-26), 500 nM SB-431542 (Selleckchem, cat. S1067), and gastrin (Tocris, cat. 3006).
[…]
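Note: spheroids exposed to compounds for seven days.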

Cc1[nH]c2ccccc2c1CCNCc1ccc(/C=C/C(=O)NO)cc1 + CN(C)c1ccc(Nc2c3ccc(NC(=O)CCN4CCCC4)cc3nc3cc(NC(=O)CCN4CCCC4)ccc23)cc1 showed a pIC50 (curve of first compound, second compound 0.0316 µM) of 6.86, a pIC50 (curve of first compound, second compound 0.1 µM) of 6.99 and a pIC50 (curve of first compound, second compound 0.316 µM) of 7.00. The pIC50 (curve of first compound, second compound 1 µM) was 6.96, the pIC50 (curve of first compound, second compound 3.16 µM) was 7.00 and the pIC50 (curve of first compound, second compound 10 µM) was 7.08. It also gave a viability, T/C (second compound 0.0316 µM, first compound 0.000999 µM) of 106%, a viability, T/C (second compound 0.0316 µM, first compound 0.00316 µM) of 99% and a viability, T/C (second compound 0.0316 µM, first compound 0.00999 µM) of 101%. It also gave a viability, T/C (second compound 0.0316 µM, first compound 0.0316 µM) of 105%, a viability, T/C (second compound 0.0316 µM, first compound 0.0999 µM) of 67.5% and a viability, T/C (second compound 0.0316 µM, first compound 0.316 µM) of 6.39%. It also gave a viability, T/C (second compound 0.1 µM, first compound 0.000999 µM) of 113%, a viability, T/C (second compound 0.1 µM, first compound 0.00316 µM) of 106% and a viability, T/C (second compound 0.1 µM, first compound 0.00999 µM) of 107%. It also gave a viability, T/C (second compound 0.1 µM, first compound 0.0316 µM) of 105%, a viability, T/C (second compound 0.1 µM, first compound 0.0999 µM) of 51% and a viability, T/C (second compound 0.1 µM, first compound 0.316 µM) of 7.07%. For the same compound, the viability, T/C (second compound 0.316 µM, first compound 0.000999 µM) was 104%, the viability, T/C (second compound 0.316 µM, first compound 0.00316 µM) was 89.3% and the viability, T/C (second compound 0.316 µM, first compound 0.00999 µM) was 95.3%. The viability, T/C (second compound 0.316 µM, first compound 0.0316 µM) was 100%, the viability, T/C (second compound 0.316 µM, first compound 0.0999 µM) was 50.4% and the viability, T/C (second compound 0.316 µM, first compound 0.316 µM) was 4.91%. For the same compound, the viability, T/C (second compound 1 µM, first compound 0.000999 µM) was 93.5%, the viability, T/C (second compound 1 µM, first compound 0.00316 µM) was 100% and the viability, T/C (second compound 1 µM, first compound 0.00999 µM) was 114%. It also gave a viability, T/C (second compound 1 µM, first compound 0.0316 µM) of 103%, a viability, T/C (second compound 1 µM, first compound 0.0999 µM) of 53.4% and a viability, T/C (second compound 1 µM, first compound 0.316 µM) of 5.91%. It also gave a viability, T/C (second compound 3.16 µM, first compound 0.000999 µM) of 96.4%, a viability, T/C (second compound 3.16 µM, first compound 0.00316 µM) of 101% and a viability, T/C (second compound 3.16 µM, first compound 0.00999 µM) of 104%. For the same compound, the viability, T/C (second compound 3.16 µM, first compound 0.0316 µM) was 94.6%, the viability, T/C (second compound 3.16 µM, first compound 0.0999 µM) was 49.7% and the viability, T/C (second compound 3.16 µM, first compound 0.316 µM) was 6.33%. For the same compound, the viability, T/C (second compound 10 µM, first compound 0.000999 µM) was 90.7%, the viability, T/C (second compound 10 µM, first compound 0.00316 µM) was 91.7% and the viability, T/C (second compound 10 µM, first compound 0.00999 µM) was 101%. The viability, T/C (second compound 10 µM, first compound 0.0316 µM) was 97.1%, the viability, T/C (second compound 10 µM, first compound 0.0999 µM) was 41.8% and the viability, T/C (second compound 10 µM, first compound 0.316 µM) was 6.78%.
COc1ncnc(C2CC2)c1-c1ncc2cnn(Cc3ccc(-c4nc(C(F)(F)F)cn4C(C)C)cc3)c2n1 was tested, and the viability, T/C (compound 0.0316 µM) was 90.9% and 94.8% and 89.7%, the viability, T/C (compound 0.1 µM) was 101% and 104% and 81.5% and the viability, T/C (compound 0.316 µM) was 100% and 102% and 101%. For the same compound, the viability, T/C (compound 1 µM) was 75.5% and 96.3% and 84.7%, the viability, T/C (compound 3.16 µM) was 109% and 103% and 87.2% and the viability, T/C (compound 10 µM) was 96.1% and 110% and 99.2%. For the same compound, the pIC50 (curve of compound) was < 5.00.
With CC(=O)O[C@H]1C(=O)[C@@]2(C)[C@H]([C@H](OC(=O)c3ccccc3)[C@]3(O)C[C@H](OC(=O)[C@H](O)[C@@H](NC(=O)c4ccccc4)c4ccccc4)C(C)=C1C3(C)C)[C@]1(OC(C)=O)CO[C@@H]1C[C@@H]2O the viability, T/C (compound 0.0316 µM) was 33.8% and 31.3% and 53.9%, the viability, T/C (compound 0.1 µM) was 25.3% and 22% and 20.2% and the viability, T/C (compound 0.316 µM) was 23.4% and 18.5% and 29.6%. For the same compound, the viability, T/C (compound 1 µM) was 20.5% and 21.1% and 28.1%, the viability, T/C (compound 3.16 µM) was 25.6% and 20.9% and 26.2% and the viability, T/C (compound 10 µM) was 28.5% and 28.9% and 37.3%. The pIC50 (curve of compound) was > 7.50.
